Reference: paper PMC6225253, “Chemical Constituents and Antidepressant-Like Effects in Ovariectomized Mice of the Ethanol Extract of Alternanthera philoxeroides” (Molecules : A Journal of Synthetic Chemistry and Natural …, 2018)

Columns and labels:
Format in all cases: in vivo
uterus of OVX mice = assay: Uterine weight and volume of OVX mice
Experimental: (§1) The levels of serum 17β-estradiol were evaluated (after decapitation) by electrochemiluminescence immunoassay. […] The weight and volume of the uterus were determined as an index of estrogen receptors activation.
(§2) After a 3-day recovery period, the animals were divided into five groups: (1) sham, (2) ovariectomy (OVX), (3) ovariectomy + 1 μg/kg 17β-estradiol, (OVX + E2), (4) ovariectomy + 250 mg/kg of A. philoxeroides extract (OVX + AP250), and (5) ovariectomy + 500 mg/kg of A. philoxeroides extract (OVX + AP500). The sham and OVX control groups were orally administered distilled water 0.2 mL per mouse once daily for 8 weeks. 17β-Estradiol and A. philoxeroides extract were suspended in distilled water and orally administered 0.2 mL per mouse once daily for 8 weeks. To assess the effects of 17β-estradiol and A. philoxeroides extract in OVX mice, the drugs were administered 1 h before the behavioral tests. At the end of behavioral studies, the mice were anesthetized with pentobarbital sodium (Nembutal®) 60 mg/kg (i.p.). Thereafter, blood sera (1 mL) were collected by cardiac puncture and centrifuged (3000 rpm; 4 °C) for 15 min [53]. 17β-Estradiol and corticosterone levels were evaluated in the serum. Uteri were removed, trimmed of connective tissue and fat for measuring and weighing. Hippocampus and frontal cortex were collected for semi-quantitative reverse transcription-polymerase chain reaction (RT-PCR) assay. Both serum and all tissues were collected rapidly and kept at −80 °C for all experiments.

[1] = tested on: HPA-axis (serum corticosterone); assay: Serum corticosterone level of OVX mice (ELISA); details: extract 250 and 500 mg/kg/day, E2 1 µg/kg/day, p < 0.001 vs vehicle-treated OVX group
Experimental: The serum corticosterone was evaluated to clarify the feedback mechanism in the HPA-axis on the estrogen deprivation in the OVX mice. […] Serum corticosterone level was determined by corticosterone (CORT) ELISA kit (Assaypro LLC. St. Charles, MO, USA) and corticosterone was used as a standard, according to the previously described procedure. The serum of the sample 25 µL was added in 96-well microplates of ELISA kit and immediately added 25 µL of biotinylated corticosterone to each well. The 96-well microplates were gently mixed and incubated for 2 h at room temperature and then washed with 200 µL of wash buffer for five times and added 50 µL of streptavidin-peroxidase conjugate into each well before incubation for 30 minutes. Each well was washed with 200 µL of wash buffer for five times again and then added 50 µL of chromogen substrate and incubated for 20 minutes. The reaction was stopped by adding 50 µL of stop solution. The absorbance was immediately measured at 450 nm.

CREB and BDNF mRNAs = assay: CREB and BDNF mRNA expression in hippocampus and frontal cortex (semi-quantitative RT-PCR); details: hippocampus and frontal cortex of OVX mice; extract 250 and 500 mg/kg/day, E2 1 μg/kg/day
From the text: After completing the behavioral analysis, mice were decapitated under anesthesia. Mouse cyclic AMP response element binding protein (CREB), brain-derived neurotrophic factor (BDNF), and β-actin mRNAs expression in hippocampus and frontal cortex were semi-quantified by RT-PCR as described previously. Total RNA was extracted from the tissues with TRIzol® (Thermo Fisher Scientific Inc., CA, USA) according to the manufacturer’s instructions. First-strand cDNA was synthesized with oligo (dT) primers and SuperScript III reverse transcriptase (Thermo Fischer Scientific Inc., California, USA). PCR amplification was carried out using gene-specific PCR primer sets as follows: β-actin: 5′-AACGGTCTCACGTCAGTGTA-3′ (sense) and 5′-GTGACAGCATTGCTTCTGTG-3′ (antisense); BDNF: 5′-GACAAGGCAACTTGGCCTAC-3′ (sense) and 5′-CCTGTCACACACGCTCAGCTC-3′ (antisense); and CREB: 5′-GAGGCAGCTTGAACAACAAC-3′ (sense) and 5′-TACCCAGGGAGGAGCAATAC-3′ (antisense). […] The amplified products were visualized, photographed under ultraviolet and semi-quantified by GeneSnap software (GSL Biotech, Chicago, IL, USA) and ImageJ software (National Institutes of Health, Bethesda, MD, USA). The relative mRNA expression (BDNF/β-actin and CREB/β-actin) in each treatment were calculated by comparing with the sham group.

[2] = tested on: ovariectomized (OVX) mice; assay: Tail suspension test (TST) in ovariectomized mice; details: oral once daily 8 weeks, E2 1 μg/kg/day, extract 250 and 500 mg/kg/day, vs vehicle-treated OVX group
Experimental: (§3) The depressive-like symptoms of the OVX mice were evaluated using FST and TST (Figure 2A,B).
as §2, with “Uteri were removed, trimmed of connective tissue and fat for measuring and weighing.” left out, “Both serum and all tissues were collected rapidly and kept at −80 °C for all experiments.” left out
The tail suspension test was used to assess the antidepressant effects of A. philoxeroides extract. […] The animal behavior was video-recorded for 6 min. […]

[3] = tested on: ovariectomized (OVX) mice; assay: Serum 17β-estradiol level of OVX mice (electrochemiluminescence immunoassay); details: OVX mice + E2 1 μg/kg/day, oral, 8 weeks; mean ± SEM, n = 3–4
Experimental: as §1
as §2, with “Uteri were removed, trimmed of connective tissue and fat for measuring and weighing.” left out, “Both serum and all tissues were collected rapidly and kept at −80 °C for all experiments.” left out

[4] = tested on: ovariectomized (OVX) mice; assay: Forced swimming test (FST) in ovariectomized mice; details: oral once daily 8 weeks, E2 1 μg/kg/day, extract 250 and 500 mg/kg/day, vs vehicle-treated OVX group
Experimental: as §3
as §2, with “Uteri were removed, trimmed of connective tissue and fat for measuring and weighing.” left out, “Both serum and all tissues were collected rapidly and kept at −80 °C for all experiments.” left out
The procedure was adapted from Vogel et al.. […] During a 6 min period, the total immobility time was recorded for the last 4 min.

[5] = OVX mice + E2 1 μg/kg/day, oral, 8 weeks, mean ± SEM

C[C@]12CC[C@@H]3c4ccc(O)cc4CC[C@H]3[C@@H]1CC[C@@H]2O [17β-estradiol]
Uterine Volume (uterus of OVX mice; [5]): 2.305 ± 0.02 ** cm^3/kg | Uterine Weight (uterus of OVX mice; [5]): 3.055 ± 0.04 g/kg | Effect on uterus weight and volume (uterus of OVX mice; OVX mice, extract 250 and 500 mg/kg/day, E2 1 µg/kg/day, vs vehicle-treated OVX): statistically significant effects on uterus weight and volume | Serum corticosterone level (effect on HPA-axis) [1]: decreasing the serum corticosterone level | CREB and BDNF mRNA expression levels (CREB and BDNF mRNAs): reversible by 17β-estradiol treatment | Immobility time in TST [2]: significantly shorter immobility time | 17β-estradiol (serum) [3]: 24.81 ± 1.11 pg/mL | Immobility time in FST [4]: significantly shorter immobility time
